Data published in patent US20060127996A1, “Method of extraction of isothiocyanates into oil from glucosinolate-containing plants and method of producing products with oil containing isothiocyanates extracted from glucosinolate-containing plants” (Johns Hopkins University, priority 2004, published 2006).

Experiments:
[1] = Procedure: The remainder of the hydrolyzed seed mash (100 g-0.79 g) was partitioned into a total of 400 ml EtOAc, by vigorous stirring and shaking. The mixture was then allowed to settle in a large graduate cylinder, the upper 100 ml was removed and evaporated under vacuum. […] This oil was then vortexed (1 g volume per 100 ml of water), then allowed to re-equilibrate into two phases, filtered, and the aqueous phase used for HPLC determination of sulforaphane content as described above.
Remark: listed apart in the source

solubility in oil ([1]; broccoli seed oil): oil soluble
solubility in hexane ([1]; hexane): not soluble
solubility in water ([1]; water, back-extraction of the oil): reasonable solubility
partition in biphasic mixture of ethyl acetate and water (pure sulforaphane spiked into ethyl acetate/water): partitions to the organic fraction
partition in biphasic mixture of hexane and water (pure sulforaphane spiked into hexane/water): partitions to the aqueous fraction
Structure (SMILES): C[S+]([O-])CCCCN=C=S (centres unmarked) [sulforaphane, 4-methylsulfinylbutyl isothiocyanate]
